Patent US20240245647A1, “ISOMEROHYDROLASE INHIBITOR FOR TREATMENT OF ATROPHIC FORM OF AGE-RELATED MACULAR DEGENERATION AND STARGARDT DISEASE” (The Trustees of Columbia University in the City of New York, priority 2021, published 2024)

Key:
RPE65 = target: T1, RPE65 (Mus musculus, UniProt Q91ZQ5); assay: Chromophore regeneration after photobleach, HPLC retinoid profile; assay type: in vivo, BALB/cJ mice
T1 construct: from tissue; host or cells: eyes of living BALB/cJ mice
T1 sequence (Q91ZQ5 1-533): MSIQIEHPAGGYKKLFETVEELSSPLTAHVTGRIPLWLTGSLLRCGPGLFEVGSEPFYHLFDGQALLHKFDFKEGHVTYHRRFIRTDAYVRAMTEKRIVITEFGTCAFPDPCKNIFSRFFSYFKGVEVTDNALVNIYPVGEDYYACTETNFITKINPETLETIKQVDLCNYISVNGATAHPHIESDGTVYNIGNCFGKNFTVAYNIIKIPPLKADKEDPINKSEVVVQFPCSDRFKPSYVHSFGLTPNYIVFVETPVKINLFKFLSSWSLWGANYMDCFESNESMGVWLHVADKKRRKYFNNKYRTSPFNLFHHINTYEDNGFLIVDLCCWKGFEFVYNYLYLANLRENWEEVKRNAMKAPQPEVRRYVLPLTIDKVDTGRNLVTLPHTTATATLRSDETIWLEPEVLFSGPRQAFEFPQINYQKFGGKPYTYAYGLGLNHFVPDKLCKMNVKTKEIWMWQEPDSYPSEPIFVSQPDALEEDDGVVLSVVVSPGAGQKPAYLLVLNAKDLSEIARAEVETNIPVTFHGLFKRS
Experimental: FIG. 4. Systemic injection of inhibitor RPE65-61 delays chromophore regeneration in BALB/cJ mice. Dark-adapted mice were injected with varying amounts of RPE65-61, and subjected to light-adaptation under 5000 lx of fluorescent light for 30 min. The eyes were harvested for HPLC retinoid profiling after 30 min of dark-adaptation, to measure levels of (FIG. 4A) 11-cis-RAL, (FIG. 4B) all-trans-RAL, and (FIG. 4C) all-transretinyl ester. (FIG. 4D) schematic representation of experimental design for RPE65-61 in vivo. Student's t-test. *P<0.05, **<0.01 and ***<0.001. (Mean±SEM).
Dark-adapted or light-exposed mice were sacrificed, and their eyes enucleated under dim red light. The whole eyes were homogenized with a glass grinder in lysis buffer [10 mM NH2OH, 50% ethanol, […] 2-(N-morpholino) ethanesulfonic acid, pH 6.5], incubated for 1 hr, and retinoids were extracted with hexane.
The ability of RPE65-61 to inhibit RPE65 in vivo was also investigated by determining chromophore regeneration after bleaching with 5,000 lux fluorescent light for 30 min. (FIG. 4).

retina = assay: Light-induced retinal damage (LIRD); assay type: in vivo, BALB/c mice; details: 2 mg/kg, 10,000 lux 3 hr, 5 days post-LIRD
Experimental: FIG. 5. LIRD caused the degeneration in the retina and RPE, which was rescued by inhibitor at the dose of 2 mg/kg in BALB/c mice. (FIG. 5A) Representative histological analysis for the retinas of RPE65-61 injected mice 5 days post-LIRD. Retinal cross-sections of No LIRD Control, LIRD+Vehicle, and LIRD+inhibitor RPE65-61 from three groups were stained with H&E for morphological comparison, 40× magnification. (FIG. 5B) Representative OCT images of mice treated with RPE65-61. […] RPE: retinal pigment epithelium; IS: inner segment; OS: outer segment; ONL: outer nuclear layer; OPL: outer plexiform layer; INL: inner nuclear layer; IPL: inner plexiform layer; RNFL: retinal nerve fiber layer. Bars represent mean±SEM. with n=8 per group. Student's t-test. *P<0.05, **<0.01 and ***<0.001, ****<0.0001.
FIG. 6. […] (FIGS. 6A-B) Shown are representative images of the Western blot detection of rhodopsin protein expression and the correlating quantifications. (FIGS. 6C-D) Cone density was evaluated by immunofluorescence, representative confocal images of immunofluorescence labeling with Peanut Agglutinin Lectin (PNA) and the correlating quantifications, 40× magnification. […]
Mice were dark-adapted overnight with food and water ad libitum. […] The mice were returned to regular housing for 5 days and then the retinal damage was assessed. […]

VAP-1 = assay: in vitro; details: male, Beagle, dog, plasma, pH 7.4
Experimental: Studies were carried out in mixed-gender human plasma (Lot #HMN330460) and male Beagle dog plasma (Lot #BGL118112), obtained from BioIVT and collected on sodium heparin. Plasma was adjusted to pH 7.4 prior to initiating the experiments. DMSO stocks were first prepared for the test articles. Aliquots of the DMSO solutions were dosed into 1 mL of plasma, which had been pre-warmed to 37° C., at a final test article concentration of 1 μM. The vials were kept in a benchtop Thermomixer® for the duration of the experiment. Aliquots (100 μL) were taken at each time point (0, 15, 30, 60, and 120 minutes) and added to 96-well plates, which had been pre-filled with 300 μL of acetonitrile (ACN). Samples were stored at 4° C. until the end of the experiment. After the final time point was sampled, the plate was mixed and then centrifuged at 3,000 rpm for 10 minutes. Aliquots of the supernatant were removed, diluted 1:1 into distilled water, and analyzed by LC-MS/MS. The peak area response ratio to internal standard (PARR) was compared to the PARR at time 0 to determine the percent of test article remaining at each time point. Half-lives were calculated using GraphPad software, fitting to a single-phase exponential decay equation.

inhibition of 11-cis-retinal regeneration after photobleaching compared with CU-239 (RPE65; mouse, in vivo): higher potency | half-life at 1 μM (VAP-1): 35.3 min
SMILES: N=S(=O)(CCN)c1cccc(OCC2CCCCC2)c1 (racemic) [RPE65-61, (±)-(2-aminoethyl) (3-(cyclohexylmethoxy)phenyl) (imino)-λ^6-sulfanone]
chromophore regeneration after photobleach (RPE65; 0.5, 1 or 2 mg/kg injected, 5,000 lux 30 min): delayed chromophore regeneration after photobleach in a dose-dependent manner | retinyl ester levels in treated mice (RPE65; mouse, in vivo): accumulate higher levels of retinyl esters | effect against LIRD (histology, ERG) (retina): protective effect
